Source: ChEMBL document CHEMBL1909046, “DrugMatrix in vitro pharmacology data”

Assays:
[1] = DRUGMATRIX: Sodium/nucleoside co-transporter radioligand binding (ligand: nitrobenzylthioinosine); format: cell membranes, Cavia porcellus, Dunkin-Hartley, Cerebral cortex, Membrane; settings: Not Active = under 50% inhibition at 10 µM
[2] = molecular target: T1, Alpha-1D adrenergic receptor (Homo sapiens, UniProt P25100); format: cell membranes, HEK293, Membrane; further: in other assays of this panel Not Active means under 50% inhibition at 10 µM
T1 sequence (P25100 whole entry): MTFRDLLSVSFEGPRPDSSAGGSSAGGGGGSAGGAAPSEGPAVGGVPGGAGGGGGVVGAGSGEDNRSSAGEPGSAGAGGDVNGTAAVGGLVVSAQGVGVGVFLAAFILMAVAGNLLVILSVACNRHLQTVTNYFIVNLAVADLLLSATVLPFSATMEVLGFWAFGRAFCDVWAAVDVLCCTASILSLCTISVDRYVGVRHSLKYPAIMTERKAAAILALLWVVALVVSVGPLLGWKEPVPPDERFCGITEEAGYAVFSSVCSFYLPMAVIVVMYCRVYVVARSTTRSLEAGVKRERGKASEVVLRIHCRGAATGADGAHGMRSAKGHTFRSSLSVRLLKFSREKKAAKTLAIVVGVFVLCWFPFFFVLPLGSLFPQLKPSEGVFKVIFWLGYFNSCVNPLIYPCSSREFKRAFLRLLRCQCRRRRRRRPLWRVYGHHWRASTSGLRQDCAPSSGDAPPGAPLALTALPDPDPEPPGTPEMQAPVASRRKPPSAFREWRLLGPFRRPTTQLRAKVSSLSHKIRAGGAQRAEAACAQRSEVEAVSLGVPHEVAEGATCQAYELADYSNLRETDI

Melanocortin receptor 5 = Melanocortin receptor 5 (Homo sapiens, UniProt P33032); format: cell membranes, HEK293, Membrane; settings: hek293; further: in other assays of this panel Not Active means under 50% inhibition at 10 µM
[3] = molecular target: T2, 5-hydroxytryptamine receptor 2C (Homo sapiens, UniProt P28335); assay: DRUGMATRIX: Serotonin (5-Hydroxytryptamine) 5-HT2C radioligand binding (ligand: [3H] Mesulergine); format: cell membranes, CHO-K1, Membrane; settings: Not Active = under 50% inhibition at 10 µM; for Ki: read-out: Ki
T2 sequence (P28335 whole entry): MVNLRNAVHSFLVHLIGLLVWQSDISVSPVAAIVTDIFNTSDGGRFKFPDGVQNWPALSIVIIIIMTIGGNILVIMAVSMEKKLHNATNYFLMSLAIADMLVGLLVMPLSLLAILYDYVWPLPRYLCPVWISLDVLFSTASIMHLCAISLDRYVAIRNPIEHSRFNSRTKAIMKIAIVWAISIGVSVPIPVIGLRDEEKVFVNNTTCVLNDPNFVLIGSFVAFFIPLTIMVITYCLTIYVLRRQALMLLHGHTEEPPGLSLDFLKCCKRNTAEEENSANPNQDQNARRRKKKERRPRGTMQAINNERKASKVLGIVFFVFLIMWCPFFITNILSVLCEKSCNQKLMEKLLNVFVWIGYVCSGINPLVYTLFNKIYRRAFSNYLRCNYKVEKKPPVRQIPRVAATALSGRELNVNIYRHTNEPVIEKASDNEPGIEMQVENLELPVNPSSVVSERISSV

Vasopressin V1a receptor = Vasopressin V1a receptor (Homo sapiens, UniProt P37288); format: cell membranes, Membrane; settings: hek293; further: in other assays of this panel Not Active means under 50% inhibition at 10 µM
[4] = molecular target: T3, Alpha-2C adrenergic receptor (Homo sapiens, UniProt P18825); assay: DRUGMATRIX: Adrenergic Alpha-2C radioligand binding (ligand: [3H] MK-912); format: cell membranes, Sf9, Membrane
T3 sequence (P18825 whole entry): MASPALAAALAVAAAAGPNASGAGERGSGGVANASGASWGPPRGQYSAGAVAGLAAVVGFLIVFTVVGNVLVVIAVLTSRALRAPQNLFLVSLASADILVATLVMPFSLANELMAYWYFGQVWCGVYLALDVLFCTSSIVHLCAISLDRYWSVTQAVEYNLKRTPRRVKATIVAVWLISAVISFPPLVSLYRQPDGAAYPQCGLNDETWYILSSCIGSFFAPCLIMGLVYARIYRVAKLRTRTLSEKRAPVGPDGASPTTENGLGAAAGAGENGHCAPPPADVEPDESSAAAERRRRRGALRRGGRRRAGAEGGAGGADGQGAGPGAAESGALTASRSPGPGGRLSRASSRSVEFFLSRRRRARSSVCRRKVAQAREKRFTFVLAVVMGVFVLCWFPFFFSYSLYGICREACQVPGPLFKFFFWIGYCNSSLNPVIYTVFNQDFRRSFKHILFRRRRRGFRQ

Chain of Melanocortin receptor 5 (P33032 whole entry): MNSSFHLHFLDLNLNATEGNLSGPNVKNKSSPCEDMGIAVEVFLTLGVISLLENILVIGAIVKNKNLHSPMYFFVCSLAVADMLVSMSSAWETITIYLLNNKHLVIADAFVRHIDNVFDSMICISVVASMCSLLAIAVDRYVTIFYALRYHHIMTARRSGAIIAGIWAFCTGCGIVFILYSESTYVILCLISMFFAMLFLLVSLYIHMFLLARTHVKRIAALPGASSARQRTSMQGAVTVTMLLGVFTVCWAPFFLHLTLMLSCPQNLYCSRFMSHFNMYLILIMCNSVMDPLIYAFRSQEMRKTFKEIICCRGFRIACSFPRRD
Chain of Vasopressin V1a receptor (P37288 whole entry): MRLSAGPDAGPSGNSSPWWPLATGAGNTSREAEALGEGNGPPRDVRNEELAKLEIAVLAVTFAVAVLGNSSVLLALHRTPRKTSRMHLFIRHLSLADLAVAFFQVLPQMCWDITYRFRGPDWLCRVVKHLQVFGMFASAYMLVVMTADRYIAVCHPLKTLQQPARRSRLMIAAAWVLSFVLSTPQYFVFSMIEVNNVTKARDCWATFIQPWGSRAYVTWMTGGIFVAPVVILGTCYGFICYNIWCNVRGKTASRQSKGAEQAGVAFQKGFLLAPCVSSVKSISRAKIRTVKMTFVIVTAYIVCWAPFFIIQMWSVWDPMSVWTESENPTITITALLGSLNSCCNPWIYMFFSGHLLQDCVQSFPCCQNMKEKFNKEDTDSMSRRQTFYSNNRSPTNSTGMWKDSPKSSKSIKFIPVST

Structure (SMILES)	IC50 [1]	Ki [1]	IC50 ([2]; hek293)	IC50 (Melanocortin receptor 5)	IC50 ([3]; cho-k1)	IC50 (Vasopressin V1a receptor)	IC50 ([4]; sf9)	IC50 ([2]; read-out: IC50) [nM]	Ki ([2]; read-out: Ki) [nM]	IC50 ([3]; read-out: IC50) [nM]	Ki [3] [nM]	IC50 ([4]; read-out: IC50) [nM]	Ki ([4]; read-out: Ki) [nM]
CC(C)(C)NCC(O)COc1cccc2c1CC(O)C(O)C2 (stereo not drawn) [NADOLOL]	Not Active	Not Active	Not Active	Not Active	Not Active	Not Active	Not Active						
C[C@H]1COc2c(N3CCN(C)CC3)c(F)cc3c(=O)c(C(=O)O)cn1c23.C[C@H]1COc2c(N3CCN(C)CC3)c(F)cc3c(=O)c(C(=O)O)cn1c23.O [LEVOFLOXACIN]	Not Active	Not Active	Not Active	Not Active	Not Active	Not Active	Not Active						
COc1ccnc(C[S+]([O-])c2nc3ccc(OC(F)F)cc3[nH]2)c1OC (stereo not drawn) [PANTOPRAZOLE]	Not Active	Not Active	Not Active	Not Active	Not Active	Not Active	Not Active						
CCCCC1=NC2(CCCC2)C(=O)N1Cc1ccc(-c2ccccc2-c2nnn[nH]2)cc1 [IRBESARTAN]	Not Active	Not Active	Not Active	Not Active	Not Active	Not Active	Not Active						
COC(=O)Nc1nc2cc(C(=O)c3ccc(F)cc3)ccc2[nH]1 [FLUBENDAZOLE]	Not Active	Not Active	Not Active	Not Active	Not Active	Not Active	Not Active						
CN(C)CCC=C1c2ccccc2CCc2ccccc21 [AMITRIPTYLINE]	Not Active	Not Active		Not Active		Not Active		105	52	6.05	3.17	59	8.6
Cc1ccc(C)c(OCCCC(C)(C)C(=O)O)c1 [GEMFIBROZIL]	Not Active	Not Active	Not Active	Not Active	Not Active	Not Active	Not Active						
C[N+](C)(C)C[C@H](O)CC(=O)[O-] [LEVOCARNITINE]	Not Active	Not Active	Not Active	Not Active	Not Active	Not Active	Not Active						
CNC1=Nc2ccc(Cl)cc2C(c2ccccc2)=[N+]([O-])C1 [CHLORDIAZEPOXIDE]	Not Active	Not Active	Not Active	Not Active	Not Active	Not Active	Not Active						
CC(O)COC[C@H]1O[C@@H]2O[C@H]3[C@H](O)[C@@H](O)[C@@H](O[C@H]4[C@H](O)[C@@H](O)[C@@H](O[C@H]5[C@H](O)[C@@H](O)[C@@H](O[C@H]6[C@H](O)[C@@H](O)[C@@H](O[C@H]7[C@H](O)[C@@H](O)[C@@H](O[C@H]8[C@H](O)[C@@H](O)[C@@H](O[C@H]1[C@H](O)[C@H]2O)O[C@@H]8COCC(C)O)O[C@@H]7COCC(C)O)O[C@@H]6COCC(C)O)O[C@@H]5COCC(C)O)O[C@@H]4COCC(C)O)O[C@@H]3COCC(C)O (stereo partly drawn) [2-HYDROXYPROPYL-BETA-CYCLODEXTRIN]	Not Active	Not Active	Not Active	Not Active		Not Active	Not Active			1590	833		
C[C@]12CC[C@@H]3c4ccc(O)cc4CC[C@H]3[C@@H]1C[C@@H](O)[C@@H]2O [ESTRIOL]	Not Active	Not Active	Not Active	Not Active	Not Active	Not Active	Not Active						
O=C(O)P(=O)(O)O [FOSCARNET]	Not Active	Not Active	Not Active	Not Active	Not Active	Not Active	Not Active						
